test system: Triticum aestivum; assay: Drought stress test on potted crop plants, spray application, visual scoring against stressed control plants; format: in vivo; parameters: key: 0: no positive effect; +: slight positive effect; ++: clear positive effect; +++: strong positive effect; settings: dosage 25 g/ha, mean of at least three repeats
Procedure: Seeds of monocotyledonous and dicotyledonous crop plants were sown in sandy loam in plastic pots, covered with soil or sand and cultivated in a greenhouse under good growth conditions. The test plants are treated at the early leaf stage (BBCH10-BBCH13). To assure uniform water supply before commencement of stress, the potted plants were supplied with water by dam irrigation prior to substance application. The inventive compounds were first formulated as wettable powders (WP) or dissolved in a solvent mixture. The further dilution was effected with water supplemented with 0.2% wetting agent (e.g. agrotin). The finished spray liquor was sprayed onto the green parts of the plant at an equivalent water application rate of 600 I/ha. Substance application was followed immediately by stress treatment of the plants. Drought stress was induced by gradual drying out under the following conditions: “Day”: 14 hours with illumination at […]. “Night”: 10 hours without illumination at […]. The duration of the respective stress phases was guided mainly by the condition of the stressed control plants. It was ended (by re-irrigating and transfer to a greenhouse with good growth conditions) as soon as irreversible damage was observed on the stressed control plants. The end of the stress phase was followed by an about 4-7-day recovery phase, during which the plants were once again kept under good growth conditions in a greenhouse. The duration of the recovery phase was guided mainly by when the trial plants had attained a state which enabled visual scoring of potential effects, and was therefore variable. Once this juncture had been reached, the appearance of the plants treated with test substances was recorded in comparison to the stressed control plants by the following categories: • 0 no positive effect • + slight positive effect • ++ clear positive effect • +++ strong positive effect In order to rule out any influence on the effects observed by any fungicidal or insecticidal action of the test compounds, it was additionally ensured that the tests proceeded without fungal infection or insect infestation. The values reported in tables A-1 and A-2 below are mean values of the results from at least three repeats. Effects of selected compounds of the general formula (I) under drought stress according to the following tables A-1 and A-2: In the above tables: BRSNS =Brassica napus TRZAS =Triticum aestivum

| Compound | Effect (TRZAS) |
| --- | --- |
| CC1(N2C(=O)CCc3cc(NS(=O)(=O)c4ccc(C#N)cc4)ccc32)CC1 [A1-45] | + |

target: T1, phosphatase ABI1 via the co-regulator RCAR11/PYR1 (Arabidopsis thaliana, UniProt O49686+P49597); assay: In vitro assay: inhibition of ABI1 dephosphorylation of 4-methylumbelliferyl phosphate (MUP), fluorescence; format: biochemical; settings: concentration of 5 mM of the substance in DMSO and water, 35° C., 20 minutes
T1 sequence (O49686 1-191): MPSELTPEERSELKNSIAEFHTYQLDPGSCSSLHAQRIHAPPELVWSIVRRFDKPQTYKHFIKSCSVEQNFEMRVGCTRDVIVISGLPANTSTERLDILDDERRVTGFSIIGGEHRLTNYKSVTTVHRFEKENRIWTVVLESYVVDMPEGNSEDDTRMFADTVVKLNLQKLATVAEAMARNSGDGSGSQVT
T1 sequence (P49597 1-434): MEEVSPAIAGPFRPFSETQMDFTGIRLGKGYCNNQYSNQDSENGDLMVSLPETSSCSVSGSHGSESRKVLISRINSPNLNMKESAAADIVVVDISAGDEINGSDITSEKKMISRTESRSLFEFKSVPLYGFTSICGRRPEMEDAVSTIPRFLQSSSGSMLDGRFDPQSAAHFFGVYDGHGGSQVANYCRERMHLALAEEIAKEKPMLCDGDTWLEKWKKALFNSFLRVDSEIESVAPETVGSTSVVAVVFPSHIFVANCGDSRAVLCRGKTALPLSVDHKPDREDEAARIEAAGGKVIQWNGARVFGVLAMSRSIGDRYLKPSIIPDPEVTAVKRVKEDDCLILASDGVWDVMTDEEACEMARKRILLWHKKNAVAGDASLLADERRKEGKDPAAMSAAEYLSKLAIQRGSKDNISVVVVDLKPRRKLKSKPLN
Text: Effects of the phytohormone abscisic acid (ABA) on the behavior of plants under abiotic stress and the mechanism of action of ABA are described in the literature (cf. Abrams et al., WO97/23441, Park et al. Science, 2009, 324, 1068; Grill et al. Science, 2009, 324, 1064; Tanokura et al. Biophysics, 2011, 7, 123; Schroeder et al. Plant J. 2010, 61, 290). Therefore, it is possible with the aid of a suitable in vitro test system to derive a correlation between the action of ABA and the stress response of a plant under abiotic stress. In the event of water deficiency (drought stress), plants form the phytohormone abscisic acid (ABA). This binds, along with a co-regulator (Regulatory Component of ABA-Receptor=RCAR according to Grill et al. Science, 2009, 324, 1064 or PYR/PYL according to Cutler et al. Science, 2009, 324, 1068), to a phosphatase (e.g. ABI1, a type 2C protein phosphatase, also abbreviated to PP2C) and inhibits its activity. As a result, a “downstream” kinase (e.g. SnRK2) is no longer dephosphorylated. This kinase, which is thus active, via phosphorylation of transcription factors (e.g. AREB/ABF, cf. Yoshida et al Plant J. 2010, 61, 672), switches on a genetic protection program to increase drought stress tolerance. The assay described hereinafter utilizes the inhibition of the phosphatase ABI1 via the co-regulator RCAR11/PYR1 aus Arabidopsis thaliana. For the determination of activity, the dephosphorylation of 4-methylumbelliferyl phosphate (MUP) was measured at 460 nm. The in vitro assay was conducted in Greiner 384-well PS microplates F-well, using two controls: a) 0.5% dimethyl sulfoxide (DMSO) and b) 5 μM abscisic acid (ABA). The assay described here was generally conducted with substance concentrations of the appropriate chemical test substances in a concentration range of 0.1 μM to 100 μM in a solution of DMSO and water. The substance solution thus obtained, if necessary, was stirred with esterase from porcine liver (EC 3.1.1.1) at room temperature for 3 h and centrifuged at 4000 rpm for 30 min. A total volume of 45 μl was introduced into each cavity of the microplate, having the following composition: • 1) 5 μl of substance solution, i.e. a) DMSO 5% or b) abscisic acid solution or c) the corresponding example compound of the general formula (I) dissolved in 5% DMSO. • 2) 20 μl of enzyme buffer mix, composed of a) 40% by vol. of enzyme buffer (10 ml contain equal proportions by volume of 500 mM Tris-HCl pH 8, 500 mM NaCl, 3.33 mM MnCl2, 40 mM dithiothreitol (DTT)), b) 4% by vol. of ABI1 dilution (protein stock solution was diluted so as to give, after addition, a final concentration in the assay of 0.15 μg ABI1/well), c) 4% by vol. of RCAR11 dilution (enzyme stock was diluted so as to give, on addition of the dilution to the enzyme buffer mix, a final concentration in the assay of 0.30 μg enzyme/well), d) 5% by vol. of Tween20 (1%), e) 47% by vol. H2O bi-dist. • 3) 20 μl of substrate mix, composed of a) 10% by vol. of 500 mM Tris-HCl pH 8, b) 10% by vol. of 500 mM NaCl, c) 10% by vol. of 3.33 mM MnCl2, d) 5% by vol. of 25 mM MUP, 5% by vol. of Tween20 (1%), 60% by vol. of H2O bi-dist.
Enzyme buffer mix and substrate mix were made up 5 minutes prior to the addition and warmed to a temperature of 35° C. On completion of pipetting of all the solutions and on completion of mixing, the plate was incubated at 35° C. for 20 minutes. Finally, a relative fluorescence measurement was made at 35° C. with a BMG Labtech “POLARstar Optima” microplate reader using a 340/10 nm excitation filter and a 460 nm emission filter. The efficacy of the compounds of the general formula (I) is reported in the table which follows using abscisic acid […] as comparative substance (no. 38) according to the following classification: ++++(inhibition ≧90%), +++(90% >inhibition ≧70%), ++(70% >inhibition ≧50%), +(50% >inhibition ≧30%). […]

| Compound | ABI1 inhibition |
| --- | --- |
| Cc1ccc(CS(=O)(=O)Nc2ccc3c(c2)CCC(=O)N3C2(C)CC2)cc1 [A1-152] | ++++ (inhibition ≧90%) |
| CC1(N2C(=O)CCc3cc(NS(=O)(=O)Cc4ccc(F)cc4)ccc32)CC1 [A1-158] | ++++ (inhibition ≧90%) |
| Cc1ccc(CS(=O)(=O)Nc2ccc3c(c2)CCC(=O)N3C2(C3CC3)CC2)cc1 [A3-152, N-{1-[1,1′-bi(cyclopropyl)-1-yl]-2-oxo-1,2,3,4-tetrahydroquinolin-6-yl}-1-(4-methylphenyl)methanesulfonamide] | ++++ (inhibition ≧90%) |
| Cc1cccc(CS(=O)(=O)Nc2ccc3c(c2)CCC(=O)N3C2(C3CC3)CC2)c1 [A3-153] | +++ (90% >inhibition ≧70%) |
| O=C1CCc2cc(NS(=O)(=O)Cc3cccc(Cl)c3)ccc2N1C1(C2CC2)CC1 [A3-166] | +++ (90% >inhibition ≧70%) |
| CCc1ccc(CS(=O)(=O)Nc2ccc3c(c2)CCC(=O)N3C2(C3CC3)CC2)cc1 [A3-325] | ++++ (inhibition ≧90%) |
| Cc1ccc(CS(=O)(=O)Nc2ccc3c(c2)CCC(=O)N3C2CC2C2CC2)cc1 (stereo not drawn) [A16-152, N-{1-[1,1′-bi(cyclopropyl)-2-yl]-2-oxo-1,2,3,4-tetrahydroquinolin-6-yl}-1-(4-methylphenyl)methanesulfonamide] | ++++ (inhibition ≧90%) |
| O=C1CCc2cc(NS(=O)(=O)Cc3ccc(F)cc3)ccc2N1C1CC1C1CC1 (stereo not drawn) [A16-158] | +++ (90% >inhibition ≧70%) |
| O=C1CCc2cc(NS(=O)(=O)Cc3cc(F)cc(F)c3)ccc2N1C1CC1C1CC1 (stereo not drawn) [A16-164] | ++ (70% >inhibition ≧50%) |
| O=C1CCc2cc(NS(=O)(=O)Cc3ccc(Cl)cc3)ccc2N1C1CC1C1CC1 (stereo not drawn) [A16-165] | ++++ (inhibition ≧90%) |
| CC(C)(C)c1ccc(CS(=O)(=O)Nc2ccc3c(c2)CCC(=O)N3C2CC2C2CC2)cc1 (stereo not drawn) [A16-332] | +++ (90% >inhibition ≧70%) |
| Cc1ccc(CS(=O)(=O)Nc2ccc3c(c2)CCC(=O)N3C2CC(C)C2)cc1 (stereo not drawn) [A26-152] | ++++ (inhibition ≧90%) |
| CC1CC(N2C(=O)CCc3cc(NS(=O)(=O)Cc4cc(F)cc(F)c4)ccc32)C1 (stereo not drawn) [A26-164] | ++++ (inhibition ≧90%) |
| CC1CC(N2C(=O)CCc3cc(NS(=O)(=O)Cc4ccc(Cl)cc4)ccc32)C1 (stereo not drawn) [A26-165, 1-(4-Chlorophenyl)-N-[1-(3-methylcyclobutyl)-2-oxo-1,2,3,4-tetrahydroquinolin-6-yl]methanesulfonamide] | ++++ (inhibition ≧90%) |
| CC1CC(N2C(=O)CCc3cc(NS(=O)(=O)Cc4ccc([N+](=O)[O-])cc4)ccc32)C1 (stereo not drawn) [A26-175] | ++++ (inhibition ≧90%) |
| CC1CC(N2C(=O)CCc3cc(NS(=O)(=O)Cc4cccc(C#N)c4)ccc32)C1 (stereo not drawn) [A26-182] | ++++ (inhibition ≧90%) |
| CC1CC(N2C(=O)CCc3cc(NS(=O)(=O)Cc4ccc(C(C)(C)C)cc4)ccc32)C1 (stereo not drawn) [A26-332] | ++++ (inhibition ≧90%) |
| Cc1ccc(S(=O)(=O)Nc2ccc3c(c2)CCC(=O)N3C23CC(C2)C3)cc1 [A30-50] | ++ (70% >inhibition ≧50%) |
| Cc1ccc(CS(=O)(=O)Nc2ccc3c(c2)CCC(=O)N3C23CC(C2)C3)cc1 [A30-152] | ++++ (inhibition ≧90%) |
| O=C1CCc2cc(NS(=O)(=O)Cc3cccc(F)c3)ccc2N1C12CC(C1)C2 [A30-159] | +++ (90% >inhibition ≧70%) |
| O=C1CCc2cc(NS(=O)(=O)Cc3cccc(Cl)c3)ccc2N1C12CC(C1)C2 [A30-166] | ++ (70% >inhibition ≧50%) |
| O=C1CCc2cc(NS(=O)(=O)Cc3ccc(C(F)(F)F)cc3)ccc2N1C12CC(C1)C2 [A30-178, N-[1-(Bicyclo[1.1.1]pent-1-yl)-2-oxo-1,2,3,4-tetrahydroquinolin-6-yl]-1-[4-(trifluoromethyl)phenyl]methanesulfonamide] | ++++ (inhibition ≧90%) |
| N#Cc1ccc(CS(=O)(=O)Nc2ccc3c(c2)CCC(=O)N3C23CC(C2)C3)cc1 [A30-181] | ++++ (inhibition ≧90%) |
| O=C1CCc2cc(NS(=O)(=O)Cc3ccc(Cl)cc3)ccc2N1C1CC2(CCC2)C1 [A33-165] | +++ (90% >inhibition ≧70%) |
| N#Cc1ccc(CS(=O)(=O)Nc2ccc3c(c2)CCC(=O)N3C2CC3(CCC3)C2)cc1 [A33-181, 1-(4-Cyanophenyl)-N-[2-oxo-1-(spiro[3.3]hept-2-yl)-1,2,3,4-tetrahydroquinolin-6-yl]methanesulfonamide] | +++ (90% >inhibition ≧70%) |
| CC1=CC(=O)CC(C)(C)[C@@]1(O)/C=C/C(C)=C\C(=O)O [abscisic acid, reference compound] | ++++ (inhibition ≧90%) |

From patent US20180020662A1, “Substituted 1-cycloalkyl-2-oxotetrahydroquinolin-6-ylsulfonamides or salts thereof and use thereof to increase stress tolerance in plants” (BAYER CROPSCIENCE AKTIENGESELLSCHAFT, priority 2015, published 2018)
